Laboratory results from patent US12059425B2, “Heterocyclic compounds and uses thereof” (Kumquat Biosciences Inc., priority 2022, dated 2024).

What was measured:
K-Ras G12V = target: T1, K-Ras G12V (Homo sapiens, UniProt P01116, G12V); test: PPI-HTRF assay, K-Ras G12V / SOS1 interaction; assay type: biochemical; details: HTRF, K-Ras G12V; read-out: PPI-HTRF-5 nM (K-Ras G12V IC50)
T1 construct: made in house; host or cells: E. coli, e.g. BL21 (DE3)
Method in brief: (§1)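 Compounds were tested in duplicate (10 μM to 0.01 μM) for disruption of Ras–SOS1 binding, measured as FRET between anti-GST-Eu on GST-K-Ras and anti-6His-XL665 on His-hSOS1. The buffer was HEPES pH 7.4 with NaCl, DTT, BSA and Igepal. Emission ratios (665/620 nm, excitation 337 nm) read after ≥10 min gave IC50 values.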

K-Ras G12D = target: T2, K-Ras G12D (Homo sapiens, UniProt P01116, G12D); test: PPI-HTRF assay, K-Ras G12D / SOS1 interaction; assay type: biochemical; details: HTRF, K-Ras G12D; read-out: PPI-HTRF-5 nM (K-Ras G12D IC50)
T2 construct: made in house; host or cells: E. coli, e.g. BL21 (DE3)
T2 sequence (P01116 1-188 isoform P01116-2 G12D): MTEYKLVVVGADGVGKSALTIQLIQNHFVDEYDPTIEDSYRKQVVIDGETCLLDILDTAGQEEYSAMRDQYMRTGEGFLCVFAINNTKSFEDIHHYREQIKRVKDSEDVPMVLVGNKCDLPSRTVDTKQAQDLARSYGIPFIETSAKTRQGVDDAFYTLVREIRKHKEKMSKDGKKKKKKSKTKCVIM
Method in brief: as §1

wildtype K-Ras = target: T3, wildtype K-Ras (Homo sapiens, UniProt P01116); test: PPI-HTRF assay, wildtype K-Ras / SOS1 interaction; assay type: biochemical; details: HTRF, K-Ras wt; read-out: PPI-HTRF-5 nM (K-Ras wt IC50)
T3 construct: made in house; host or cells: E. coli, e.g. BL21 (DE3)
T3 sequence (P01116 1-188 isoform P01116-2): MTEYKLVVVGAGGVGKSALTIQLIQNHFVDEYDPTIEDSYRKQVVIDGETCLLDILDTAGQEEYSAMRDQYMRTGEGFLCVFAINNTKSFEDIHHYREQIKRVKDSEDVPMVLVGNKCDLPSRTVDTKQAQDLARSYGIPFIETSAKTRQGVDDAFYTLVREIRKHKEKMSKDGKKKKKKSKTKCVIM
Method in brief: as §1

A549 cells = test: Ras cellular assay, cell proliferation A549; assay type: cell-based; details: Homo sapiens
Method in brief: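 G12S-mutant A549 cells (800/well) in RPMI-1640 plus 10% heat-inactivated FBS, standard or ultra-low attachment 384-well plates, dosed the day after plating with a 10-point 3-fold series. Viability by CellTiter-Glo luminescence about 6 days later; IC50 from four-parameter fit.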

SW620 cells = test: Ras cellular assay, cell proliferation SW620; assay type: cell-based; details: Homo sapiens, SW-620
Description: For example, this assay can be also used to assess selective growth inhibition of a mutant Ras protein relative to a wildtype, or relative to a different mutant Ras protein.

GP2D cells = test: Ras cellular assay, cell proliferation GP2D; assay type: cell-based
Method in brief: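 Growth inhibition read by CellTiter-Glo luminescence roughly 5 days after compound addition, which followed overnight plating of G12D-mutant GP2D cells (e.g., 800 per well). Compounds were tested as a serial dilution (e.g., 9 points, 3-fold), with IC50 fitted by four-parameter model.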

K-Ras G12S = target: T4, K-Ras G12S (Homo sapiens, UniProt P01116, G12S); test: PPI-HTRF assay, K-Ras G12S / SOS1 interaction; assay type: biochemical; details: read-out: PPI-HTRF-5 nM (K-Ras G12S IC50)
T4 construct: made in house; host or cells: E. coli, e.g. BL21 (DE3)
T4 sequence (P01116 1-188 isoform P01116-2 G12S): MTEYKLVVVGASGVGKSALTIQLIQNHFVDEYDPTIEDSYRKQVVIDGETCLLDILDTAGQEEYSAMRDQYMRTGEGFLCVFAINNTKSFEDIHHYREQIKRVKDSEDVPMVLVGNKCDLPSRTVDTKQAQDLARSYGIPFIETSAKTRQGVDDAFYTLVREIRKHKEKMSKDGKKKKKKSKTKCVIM
Method in brief: as §1

T1 sequence (P01116 1-188 isoform P01116-2 G12V): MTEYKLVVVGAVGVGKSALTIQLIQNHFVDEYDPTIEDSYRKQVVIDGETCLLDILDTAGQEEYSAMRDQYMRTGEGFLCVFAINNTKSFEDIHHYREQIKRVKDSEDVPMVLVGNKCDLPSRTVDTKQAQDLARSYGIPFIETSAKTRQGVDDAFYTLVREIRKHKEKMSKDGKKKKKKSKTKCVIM

SMILES	IC50 (K-Ras G12V) [µM]	IC50 (K-Ras G12D) [µM]	IC50 (wildtype K-Ras) [µM]	IC50 (A549 cells) [µM]	IC50 (SW620 cells) [µM]	IC50 (K-Ras G12S) [µM]	IC50 (GP2D cells) [µM]
N#Cc1c(N)sc2c(F)ccc(-c3c(Cl)c4c5c(nc(OCC67CCCN6C[C@H](F)C7)nc5c3F)N3CCC[C@H]3CO4)c12 (stereo partly drawn) [compound 159, 2-amino-4-((12aS)-10-chloro-8-fluoro-6-(((2R)-2-fluorotetrahydro-1H-pyrrolizin-7a(5H)-yl)methoxy)-2,3,12,12a-tetrahydro-1H-pyrrolo[2′,1′:3,4][1,4]oxazepino[5,6,7-de]quinazolin-9-yl)-7-fluorobenzo[b]thiophene-3-carbonitrile]	< 5	< 5	< 5	< 5	< 5	< 5	< 5
N#Cc1c(N)sc2c(F)ccc(-c3c(Cl)c4c5c(nc(OCC67CCCN6C[C@H](F)C7)nc5c3F)N3CCCC[C@H]3CO4)c12 (stereo partly drawn) [compound 168, 2-amino-4-((5aS)-3-chloro-1-fluoro-12-(((2R,7aS)-2-fluorohexahydro-1H-pyrrolizin-7a-yl)methoxy)-5,5a,6,7,8,9-hexahydropyrido[2′,1′:3,4][1,4]oxazepino[5,6,7-de]quinazolin-2-yl)-7-fluorobenzo[b]thiophene-3-carbonitrile]	< 5	< 5	< 5	< 5	< 5	< 5	< 5
N#Cc1c(N)sc2c(F)ccc(-c3c(Cl)c4c5c(nc(OC[C@@]67CCCN6C[C@H](F)C7)nc5c3F)N(C3CC3)C3COCC3CO4)c12 (stereo partly drawn) [compound 125, 2-amino-4-(6-chloro-12-cyclopropyl-4-fluoro-2-(((2R,7aS)-2-fluorotetrahydro-1H-pyrrolizin-7a(5H)-yl)methoxy)-8a,9,11a,12-tetrahydro-8H,11H-furo[3′,4′:6,7][1,5]oxazocino[4,3,2-de]quinazolin-5-yl)-7-fluorobenzo[b]thiophene-3-carbonitrile]	< 5	< 5	< 5	< 5	< 5	< 5	< 5
N#Cc1c(N)sc2c(F)ccc(-c3c(Cl)c4c5c(nc(OC[C@@]67CCCN6C[C@H](F)C7)nc5c3F)N3CCNCCC3CO4)c12 (stereo partly drawn) [compound 142, 2-amino-4-(6-chloro-4-fluoro-2-(((2R,7aS)-2-fluorotetrahydro-1H-pyrrolizin-7a(5H)-yl)methoxy)-8a,9,10,11,12,13-hexahydro-8H-[1,4]diazepino[7′,1′:3,4][1,4]oxazepino [5,6,7-de]quinazolin-5-yl)-7-fluorobenzo[b]thiophene-3-carbonitrile]	< 5	< 5	< 5	< 5	< 5	< 5	< 5
CCN1c2nc(OC[C@@]34CCCN3C[C@H](F)C4)nc3c(F)c(-c4ccc(F)c5sc(N)c(C#N)c45)c(Cl)c(c23)OCC2COCC21 (stereo partly drawn) [compound 186, 2-amino-4-(6-chloro-12-ethyl-4-fluoro-2-(((2R,7aS)-2-fluorotetrahydro-1H-pyrrolizin-7a(5H)-yl)methoxy)-8a,9,11a,12-tetrahydro-8H,11H-furo[3′,4′:6,7][1,5]oxazocino[4,3,2-de]quinazolin-5-yl)-7-fluorobenzo[b]thiophene-3-carbonitrile]	< 5	< 5	< 5	< 5	< 5	< 5	< 5
N#Cc1c(N)sc2c(F)ccc(-c3c(Cl)c4c5c(nc(OC[C@@]67CCCN6C[C@H](F)C7)nc5c3F)N3CCN(C=O)CCC3CO4)c12 (stereo partly drawn) [compound 152, 2-amino-4-(12-chloro-10-fluoro-8-(((2R,7aS)-2-fluorotetrahydro-1H-pyrrolizin-7a(5H)-yl)methoxy)-3-formyl-2,3,4,5,14,14a-hexahydro-1H-[1,4]diazepino[7′,1′:3,4][1,4]oxazepino[5,6,7-de]quinazolin-11-yl)-7-fluorobenzo[b]thiophene-3-carbonitrile]	< 5	< 5	< 5	< 5	< 5	< 5	< 5

The next lines start with results.

IC50 (K-Ras G12V) [µM]	IC50 (K-Ras G12D) [µM]	IC50 (wildtype K-Ras) [µM]	IC50 (A549 cells) [µM]	IC50 (SW620 cells) [µM]	IC50 (K-Ras G12S) [µM]	SMILES	IC50 (GP2D cells) [µM]
< 5	< 5	< 5	< 5	< 5	< 5	N#Cc1c(N)sc2c(F)ccc(-c3c(Cl)c4c5c(nc(OC[C@@]67CCCN6C[C@H](F)C7)nc5c3F)N3CCCC(O)C3CO4)c12 (stereo partly drawn) [compound 157, 2-amino-4-(6-chloro-4-fluoro-2-(((2R,7aS)-2-fluorotetrahydro-1H-pyrrolizin-7a(5H)-yl)methoxy)-9-hydroxy-8,8a,9,10,11,12-hexahydropyrido[2′,1′:3,4][1,4]oxazepino [5,6,7-de]quinazolin-5-yl)-7-fluorobenzo[b]thiophene-3-carbonitrile]	< 5
< 5	< 5	< 5	< 5	< 5	< 5	N#Cc1c(N)sc2c(F)ccc(-c3c(Cl)c4c5c(nc(OC[C@@]67CCCN6C[C@H](F)C7)nc5c3F)N3CCC[C@H]3CCO4)c12 [compound 115, 2-amino-4-((13aS)-10-chloro-8-fluoro-6-(((2R,7aS)-2-fluorotetrahydro-1H-pyrrolizin-7a(5H)-yl)methoxy)-1,2,3,12,13,13a-hexahydropyrrolo[1′,2′:5,6][1,5]oxazocino [4,3,2-de]quinazolin-9-yl)-7-fluorobenzo[b]thiophene-3-carbonitrile]	< 5
< 5	< 5	< 5	< 5	< 5	< 5	CC1(O)CCN2c3nc(OC[C@@]45CCCN4C[C@H](F)C5)nc4c(F)c(-c5ccc(F)c6sc(N)c(C#N)c56)c(Cl)c(c34)OCC2C1 (stereo partly drawn) [compound 136, 2-amino-4-(3-chloro-1-fluoro-12-(((2R,7aS)-2-fluorotetrahydro-1H-pyrrolizin-7a(5H)-yl)methoxy)-7-hydroxy-7-methyl-5,5a,6,7,8,9-hexahydropyrido[2′,1′:3,4][1,4]oxazepino [5,6,7-de]quinazolin-2-yl)-7-fluorobenzo[b]thiophene-3-carbonitrile]	< 5
< 5	< 5	< 5	< 5	< 5	< 5	N#Cc1c(N)sc2c(F)ccc(-c3c(Cl)c4c5c(nc(OC[C@@]67CCCN6C[C@H](F)C7)nc5c3F)N3CC[C@H]3CCO4)c12 [compound 207, 2-amino-4-((12aS)-9-chloro-7-fluoro-5-(((2R,7aS)-2-fluorotetrahydro-1H-pyrrolizin-7a(5H)-yl)methoxy)-1,11,12,12a-tetrahydro-2H-azeto[11,2′:5,6][1,5]oxazocino[4,3,2-de]quinazolin-8-yl)-7-fluorobenzo[b]thiophene-3-carbonitrile]	< 5
< 5	< 5	< 5	< 5	< 5	< 5	N#Cc1c(N)sc2c(F)ccc(-c3c(Cl)c4c5c(nc(OC[C@@]67CCCN6C[C@H](F)C7)nc5c3F)N(CC(F)F)C3CNCC3O4)c12 (stereo partly drawn) [compound 175, 2-amino-4-(6-chloro-11-(2,2-difluoroethyl)-4-fluoro-2-(((2R,7aS)-2-fluorotetrahydro-1H-pyrrolizin-7a(5H)-yl)methoxy)-7a,8,9,10,10a,11-hexahydropyrrolo[3′,4′:2,3][1,4]oxazepino [5,6,7-de]quinazolin-5-yl)-7-fluorobenzo[b]thiophene-3-carbonitrile]	< 5
< 5	< 5	< 5	> 5	< 5	< 5	N#Cc1c(N)sc2c(F)ccc(-c3c(Cl)c4c5c(nc(OC[C@@]67CCCN6C[C@H](F)C7)nc5c3F)N3CC[C@@H]3CO4)c12 [compound 139, 2-amino-4-((11aR)-9-chloro-7-fluoro-5-(((2R,7aS)-2-fluorotetrahydro-1H-pyrrolizin-7a(5H)-yl)methoxy)-1,2,11,11a-tetrahydroazeto[2′,1′:3,4][1,4]oxazepino [5,6,7-de]quinazolin-8-yl)-7-fluorobenzo[b]thiophene-3-carbonitrile]	< 5
